Bounds are passed on as bounds.

Experiment [1] deals with HIV-1 transcripts. Description: RNA-seq of HIV-1 transcripts in infected TZM-bl cells. It counts as cell-based. Particulars: HIV-1NL4-3 MOI 1, 1.5 µM, 2 days. The protocol:
At 48 h after infection, the total RNA was extracted using the Maxwell RSC simplyRNA Cells Kit (Promega) according to the manufacturer’s instructions. RNA integrity was evaluated as RNA integrity number >6 using the Agilent 2100 Bio-analyzer (Agilent Technologies, Santa Clara, CA, USA). The cDNA libraries were constructed using TruSeq Stranded mRNA Sample Preparation Kit (Illumina, San Diego, CA, USA) according to the manufacturer’s instructions. Subsequently, these cDNA libraries were sequenced on the Illumina sequencing platform (NovaSeq6000; Illumina) and 150 bp paired-end reads were generated. Trimmomatic (v.0.32) was used to eliminate low-quality reads and adapter sequences from the sequencing data ([64]). Subsequently, the filtered reads were aligned to the HIV-1 genome (accession: AF324493.2) using STAR (v.2.3.0) ([65]). RT-qPCR analyses were performed as previously described ([66]) with some minor modifications. […] After infection, the infected cells were treated with 1.5 µM of the compounds. Forty-eight hours after treatment, the viral mRNA was isolated, converted to cDNA, and quantified through RT-qPCR on a 7500 Real-Time PCR System (Applied Biosystems) using the Power SYBR Green PCR Master Mix (Applied Biosystems). The comparative cycle threshold (Ct) method was used to analyze relative changes (Δ) in gene expression. The ΔCt values were determined using a 7500 Real-Time PCR System Software (Applied Biosystems) normalizing with gapdh, and the gene expression was calculated using the ΔΔCt-method. The primers used in this assay are the following: gag forward, 5′-[…]-3′, gag reverse, 5′-[…]-3′; gapdh forward, 5′-[…]-3′, gapdh reverse, 5′-[…]-3′.

Experiment [2] concerns HIV-1NL4-3 IRES-eGFP-nef+. The experiment can be described thus: eGFP-encoding HIV-1 infection of TZM-bl cells. It counts as cell-based. Particulars: 9, 10, 13 1.5 μM, 20, 21, 22 4 μM, seliciclib 10 µM, triptolide 5 nM, DTG 2 nM, EFV 2 nM, 2 days. The protocol: Fig 4 (A) Comparison of the chemical structures between prominent derivatives (9, 10, and 13) and non-functional derivatives (20, 21 and 22). (B) bl-DTR cells were treated with serial dilutions of each compound upon Dox for 24 h. The activities of F-Luc and R-Luc were determined using the Dual-Glo -Luciferase assay system. (C) TZM-bl cells were infected with the HIV-1NL4-3 strain at an MOI of 1 upon treatment of compounds. At 48 h after infection, the viral infectivity and cell viability were determined as described above (Fig. 1). (D) TZM-bl cells were infected with HIV-1NL4-3 IRES-eGFP virus along with the compound treatment. Two days later, GFP-expressing cells were observed by fluorescence microscopy (100× magnification). […] At 48 h after infection, the β-gal activity indicating viral infectivity was determined using the β-gal Enzyme Assay kit. F-Luc activity and cell viability were determined as described above (Fig. 4C). (C and E) The dose-response curves show the relative activity compared with that of the DMSO vehicle (mean ± SD; n = 3).

The test system of experiment [3] is HIV-1NL4-3. The experiment can be described thus: HIV-1 replication in A3.01 cells (p24 […]). Particulars: fivefold serial dilutions, 3 days. It counts as cell-based. The procedure:
The p24 level from the cell supernatant was subsequently determined using a p24 […] kit (PerkinElmer). In parallel, the cell viability was determined without viral infection because of the viral cytopathic effect. […] In parallel, cell viability was determined. The data (A and B) are presented as the mean ± SD (n = 3). (C) PBMCs (4 × 10^5) infected with HIV-AD8 at an MOI of 0.1 were treated with 1.5 µM of the compounds or ARVs for 3 days. The levels of p24 and cell viability were subsequently determined. (D) J1.1 cells were cultured with the compounds ([…]) under 50 ng/mL phorbol myristate acetate (PMA) treatment for 2 days. The level of p24 was subsequently determined. (E) J-Lat 6.3 cells were treated with the compounds (1.5 µM) under 1 µg/mL of PMA for 2 days. The GFP-positive cell population was analyzed using flow cytometry. The data are represented as a value relative to the DMSO-treated vehicle (D) and a percent of the GFP^+ cell population (E) as mean ± SD (n = 3).
The inhibitory effects of the compounds on viral replication were determined with some minor modifications, as previously described ([12], [62]). […] PBMCs (4 × 10^5) pre-activated with PHA-M for 3 days were washed with fresh media to remove excess PHA-M and subsequently infected with HIV-1NL4-3 or HIV-1AD8 or PIs-resistant HIV-1 strains as A3.01 infection. After infection, the infectious media were replaced with fresh media supplemented with international 10 units (IU)/mL of IL-2 and the indicated compounds. At 72 h after infection, the inhibitory effect of the compounds on viral replication was determined by measuring the p24 amount, an HIV capsid protein, using an HIV-1 p24 […] kit (PerkinElmer, Waltham, MA, USA). Cell viability was determined as described above. The inhibitory effects on provirus reversing in J1.1 and J-Lat 6.3 cells were determined as previously described ([12], [41], [63]) with some minor modifications. Briefly, 5 × 10^4 persistently HIV-1-infected J1.1 or J-Lat 6.3 cells were cultured in either the presence or absence of the compounds at a final concentration of 1.5 µM and treated with PMA (50 ng/mL for J1.1 cells, 1 µg/mL for J-Lat 6.3 cells). Two days after treatment, the levels of viral production were determined using p24 […] for J1.1 cells and flow cytometry analysis for GFP-expressing J-Lat 6.3 cells.

In experiment [4] the test system is proviral DNA integrated to the host chromosome. Description: Integrated proviral DNA, nested Alu-PCR in A3.01 cells. It is filed as cell-based, HIV-1. Particulars: compounds 5 µM, 40 h after infection. The procedure: Fig 5 (A) Time-of-addition assay. […] Subsequently, the cells were treated with the compounds at the indicated time points (0, 1, 2, 4, 6, 8, 10, 12, 24, 30, 36, 42, and 48 h) after HIV-1 infection. The final concentrations of compounds are described in Materials and Methods. Viral activity according to the timing of drug addition was measured as F-Luc activity at 54 h after infection. The relative activities are represented as the mean ± SD (n = 3) compared with the activity observed 54 h post-infection. The relative time frames associated with each HIV-1 infection step are defined based on the time frame of susceptibility to the drug that blocks that particular infection step. […] At 16 h after infection, the viral reverse transcription (RT) product (viral cDNA) level was determined by quantitative real-time PCR (RT-qPCR) using gag and 18S rRNA primer sets and represented as the mean ± SD (n = 3) normalized against the amount of the 18S rRNA compared with the DMSO control. **P < 0.01 compared with the vehicle (DMSO). (C) An in vitro integrase (IN) assay was performed with 10 µM of the indicated compounds following the manufacturer’s protocol. **P < 0.01 compared with vehicle (DMSO). (D) A3.01 cells were infected with HIV-1 upon treatment with the indicated compounds (5 µM) and ARVs (EFV and DTG) as the experimental controls. At 40 h after infection, cellular chromosomal DNA was purified, and the integrated proviral DNA was detected through nested Alu-PCR amplification.
The activity of HIV-1 RT was determined as previously described with some minor modifications ([66][–][68]). In brief, HIV-1NL4-3 obtained from plasmid transfection was treated with DNase I (2.5 U/mL) for 2 h at 37°C to remove the plasmid DNA. […] Sixteen hours after infection, the cell cytosolic DNA was isolated under RNase A treatment, and the RT products (cytosolic viral cDNA) were quantified using RT-qPCR and the following primers: gag forward, 5′-[…]-3′, gag reverse, 5′-[…]-3′; 18S rRNA forward, 5′-[…]-3′, 18S rRNA reverse, 5′-[…]-3′. The relative levels of RT products were analyzed using the ΔΔCt-method, as described above. In vitro integrase activity was determined using an HIV-1 integrase assay kit (XpressBio, Frederick, MD, USA) as previously described ([12]). In brief, a 96-well plate coated with donor substrate DNA was blocked, and HIV-1 integrase was then added to the plate. Subsequently, the compounds and target substrate DNA were added to the plate and incubated for 30 min at 37°C. The plate was washed and subsequently incubated with horse radish peroxidase. Integrase activity was measured by the peroxidase activity with the substrate at an optical density of 450 nm. The experiment was performed in triplicates. Detection of integrated proviral DNA was performed as previously described ([69]) with some minor modifications. […] Chromosomal DNA was purified using the G-Spin DNA extraction kit (Intron Bio Tech, Seongnam-si, Gyeonggi-do, Republic of Korea). The integrated proviral HIV-1 DNA was detected by nested Alu-PCR amplification using the following primers: first round PCR, Alu forward, 5′-[…]-3′, pol reverse, 5′-[…]-3′; second round PCR, gag forward, 5′-[…]-3′, pol reverse. gapdh was used as the control gene.

Experiment [5] concerns HIV-1NL4-3. Description: HIV-1 infectivity in TZM-bl cells (F-Luc). The conditions noted are these: Human immunodeficiency virus 1, TZM-bl, 48 h, Table S1, WT virus, TZM-bl, fivefold serial dilutions, MOI 1, 48 h; read-out: EC50. It counts as cell-based.
For experiment [6], the system named is NNRTI-resistant HIV-1 strain 12241. The experiment can be described thus: microbe, parasite or virus in culture. The conditions noted are these: Human immunodeficiency virus 1, TZM-bl. It is filed as cell-based. The protocol: (§1) Fig 7 (A–C) TZM-bl cells (1 × 10^4 cells/well) cultured in a 96-well plate were treated with fivefold serial dilutions of the indicated compound or ARV for 1 h before infection with the HIV-1NL4-3 or ARV-resistant HIV-1 strains at an MOI of 1, respectively. At 48 h after infection, the EC50 values were determined using an F-Luc activity. The symbols represent the fold-change values of EC50 against each mutant virus relative to the wild-type (WT) virus. (D) PBMCs (5 × 10^4 cells/well) were infected with the HIV-1NL4-3 and PIs-resistant HIV-1 strain at an MOI of 0.1, respectively. Subsequently, the PBMCs were treated with 10-fold serial dilutions of the indicated compounds or PI. At 3 days after infection, the EC50 values on the viral replication were determined using a p24 […] assay kit. (E) The inhibitory kinetics for the WT and ARV-resistant viruses. TZM-bl cells infected with WT or ARV-resistant viruses were cultured upon fivefold serial dilutions of each compound for 2 days and the infectivity was determined using an F-Luc activity.
(§2) The Tzm-bl-derived dual Tat reporter; TZM-bl/Tat/Rluc (bl-DTR) cells were established from TZM-bl cells using two Dox-inducible lentiviral expression cassettes cloned with Flag-tagged Tat86 and the R-Luc gene, as described in our previous study ([11]). TZM-bl, A3.01, J1.1, and J-Lat 6.3 cells as well as the HIV-1 molecular clone pNL4-3, pNL(AD8), ARV-resistant HIV-1 strains, and HIV-1NL43-IRES-eGFP (pBR43IeG-nef^+, gifted by Dr. Frank Kirchhoff) ([52]) were provided by the National Institute of Health HIV Reagent Program (NIH, Bethesda, MD, USA). HeLa (CCL-2) and 293T (CRL-3216) cell lines were purchased from the American Type Culture Collection (ATCC, Manassas, VA, USA). The bl-DTR, TZM-bl, HeLa, and 293T cells were cultured in Dulbecco’s modified Eagle’s medium supplemented with 1% penicillin–streptomycin and 10% (vol/vol) heat-inactivated fetal bovine serum (all from Gibco-BRL, Gaithersburg, MD, USA), and 1 µg/mL of puromycin and 200 µg/mL of zeocin were additionally supplemented for the bl-DTR cells. PBMCs were purchased from AllCells (Alameda, CA, USA) and cultured as previously described ([12]). The information on ARV-resistant HIV-1 strains was described in previous reports as follows: NNRTI-resistant 12241 and 12243 ([53]); NRTI-resistant 7396, 7406, and 7407 ([54]); INSTI-resistant 11847 and 11849 ([55], [56]); and PI-resistant 11800 and 11803 ([57]). Each molecular HIV-1 clone was transfected to 293T cells, as previously described ([58]), to obtain infectious HIV-1 particles. Virus-containing cell culture supernatants were collected 3 days after transfection, and filtered through a 0.45-µm membrane filter (Millipore Sigma, Burlington, MA, USA) to remove cell debris. The viral titration was performed as described previously ([59]) with some minor modifications. In brief, 1 × 10^4 TZM-bl cells seeded in 96-well plates were infected with 200 µL of virus-containing medium diluted serially twofold. The incubation was for 2 days and the experiment was performed in triplicate; the infection time minimized the virus spread ([59]). The titration of the infectious viral particles was performed with a ß-Gal staining assay using the ßeta-Galactosidase Staining Kit (Mirus Bio, Madison, WI, USA) following the manufacturer’s protocols. In brief, the infected cells were washed with phosphate-buffered saline (PBS) and fixed using a Cell Fixative Working solution. The cells were washed with PBS and stained using the Cell Staining Working Solution containing X-gal. The infected blue-colored cells were counted under a microscope (100× magnification). The infectious virus titer was determined as a mean value of blue-colored cells count × dilution factor and used for determining the multiplicity of infection (MOI) in each infection experiment.

Experiment [7] deals with NNRTI-resistant HIV-1 strain 12243. The experiment can be described thus: microbe, parasite or virus in culture. Particulars: Human immunodeficiency virus 1, TZM-bl. It counts as cell-based. The protocol: as §1, §2

With `Cc1[nH]c2ccc(-c3nnc(S(=O)(=O)C(C)C(=O)N4CCCCC4)o3)cc2c1C` (stereo not drawn) [Compound 20, 2-((5-(2,3-Dimethyl-1H-indol-5-yl)-1,3,4-oxadiazol-2-yl)sulfonyl)-1-(piperidin-1-yl)propan-1-one], in experiment [1], the “read counts of transcripts mapped to the HIV-1 genome” value was “not observed”. For the same molecule, the “inhibition of viral-expressed eGFP signal” value in experiment [2] was “did not”. The “inhibition of viral replication (in words)” value in experiment [3] is listed as “did not”.

In the case of `Cc1[nH]c2ccc(-c3nnc(S(=O)(=O)C(C)C(=O)N4CCCC4)o3)cc2c1C` (stereo not drawn) [Compound 21, 2-((5-(2,3-Dimethyl-1H-indol-5-yl)-1,3,4-oxadiazol-2-yl)sulfonyl)-1-(pyrrolidin-1-yl)propan-1-one], the “nested Alu-PCR band for integrated proviral DNA” value in experiment [4] is reported as “observed”. The “read counts of transcripts mapped to the HIV-1 genome” value in experiment [1] was “not observed”. The “inhibition of viral-expressed eGFP signal” value in experiment [2] is given as “did not”.

As usually defined, the EC50 is the midpoint of the concentration-response curve. As for `Cc1ccnc2c1NC(=O)c1cccnc1N2C1CC1` [NVP, nevirapine, reference compound], the figures for the EC50 in experiment [5], in experiment [6] and in experiment [7] were 0.06 µM, above 100 µM and 23.9 ± 2.3 µM, respectively.
